Among the data in the Kinase Knowledgebase extract (Sharma et al. 2016) are IC50 values, retold here.

The target in experiment [1] is CDK2 (UniProt P24941). Briefly: Enzyme Assay.
In experiment [2] the target is CDK2 (UniProt P24941). Briefly: Enzyme Assay. This is another data set of the same source.

As usually defined, the IC50 is the concentration needed to halve the response being measured. Read a low IC50 as higher potency.

Molecules are shown by their SMILES.

For the compound `COC(=O)[C@@]1(O)C[C@H]2O[C@]1(C)n1c3ccccc3c3c4c(c5c6ccccc6n2c5c31)C(=O)N[C@@H]4Cc1ccccc1`, the IC50 in experiment [1] and in experiment [2] was 10 µM in each case.

On to `COC(=O)[C@@]1(O)C[C@H]2O[C@]1(C)n1c3ccccc3c3c4c(c5c6ccccc6n2c5c31)C(=O)N[C@H]4C(C)C`, for which the values for the IC50 in experiment [1] and in experiment [2] were 29 µM and 1.9 µM, respectively.

Regarding `CCC(C)[C@@H]1NC(=O)c2c1c1c3ccccc3n3c1c1c2c2ccccc2n1[C@H]1C[C@](O)(C(=O)OC)[C@]3(C)O1` (stereo partly drawn), the IC50 in experiment [1] is 5.8 µM; in experiment [2] it was over 3.7 µM.

In experiment [1], `COC(=O)[C@@]1(O)C[C@H]2O[C@]1(C)n1c3ccccc3c3c4c(c5c6ccccc6n2c5c31)C(=O)N[C@H]4CCc1ccccc1` gave a concentration for half-maximal inhibition (IC50) of 3.7 µM. In other words, the single-digit micromolar range.

As to `COC(=O)[C@@]1(O)C[C@H]2O[C@]1(C)n1c3ccccc3c3c4c(c5c6ccccc6n2c5c31)C(=O)N[C@H]4CC(C)C`, the results for the IC50 in experiment [1] and in experiment [2] were 22 µM and 0.07 µM, respectively.

On to `CC(C)(C)n1nc(-c2cccc3ccccc23)c2c(N)ncnc21`, for which the figures for the IC50 in experiment [1] and in experiment [2] were 18 µM and 0.015 µM, respectively.

Turning to `COC(=O)[C@@]1(O)C[C@H]2O[C@]1(C)n1c3ccccc3c3c4c(c5c6ccccc6n2c5c31)C(=O)N[C@H]4Cc1ccccc1`, the values for the half-maximal inhibitory concentration (IC50) in experiment [1] and in experiment [2] were 1 µM and 0.15 µM, respectively.
